# Experimental data from PubChem BioAssay AID1259407 (Chemical Carcinogenesis Research Information System (CCRIS), 2018).
# The source made the active and inactive calls. How the calls were made is not given here.
# Test system: CCRIS mutagenicity, Ames/micronucleus/aberration tests
# Test: CCRIS mutagenicity studies
# [1] = Test System: AMES SALMONELLA TYPHIMURIUM, Strain/Indicator: TA98, Metabolic Activation: RAT, LIVER, S-9, AROCLOR 1254, Method: PREINCUBATION
# [2] = Test System: AMES SALMONELLA TYPHIMURIUM, Strain/Indicator: TA100, Metabolic Activation: RAT, LIVER, S-9, AROCLOR 1254, Method: PREINCUBATION
# [3] = Test System: AMES SALMONELLA TYPHIMURIUM, Strain/Indicator: TA98, Metabolic Activation: NONE, Method: PREINCUBATION
# [4] = Test System: AMES SALMONELLA TYPHIMURIUM, Strain/Indicator: TA100, Metabolic Activation: NONE, Method: PREINCUBATION
# [5] = Test System: AMES SALMONELLA TYPHIMURIUM, Strain/Indicator: TA1535, Metabolic Activation: NONE, Method: PREINCUBATION
compound,measurement,setting,value
O[C@@H]1[C@H]2O[C@H]2c2c(cc3ccc4cccc5c6ccccc6c2c3c45)[C@H]1O,mutagenic call,"Test System: AMES SALMONELLA TYPHIMURIUM, Strain/Indicator: TA97, Metabolic Activation: NONE, Method: PREINCUBATION (EXPOSURE IN MEDIUM WITH KCL)",active; positive
same,mutagenic call,"Test System: AMES SALMONELLA TYPHIMURIUM, Strain/Indicator: TA97, Metabolic Activation: NONE, Method: PREINCUBATION (EXPOSURE IN MEDIUM WITHOUT KCL)",active; positive
same,mutagenic call,"Test System: AMES SALMONELLA TYPHIMURIUM, Strain/Indicator: TA98, Metabolic Activation: NONE, Method: PREINCUBATION (EXPOSURE IN MEDIUM WITH KCL)",active; positive
same,mutagenic call,"Test System: AMES SALMONELLA TYPHIMURIUM, Strain/Indicator: TA98, Metabolic Activation: NONE, Method: PREINCUBATION (EXPOSURE IN MEDIUM WITHOUT KCL)",active; positive
same,mutagenic call,"Test System: AMES SALMONELLA TYPHIMURIUM, Strain/Indicator: TA100, Metabolic Activation: NONE, Method: PREINCUBATION (EXPOSURE IN MEDIUM WITH KCL)",active; positive
same,mutagenic call,"Test System: AMES SALMONELLA TYPHIMURIUM, Strain/Indicator: TA100, Metabolic Activation: NONE, Method: PREINCUBATION (EXPOSURE IN MEDIUM WITHOUT KCL)",active; positive
same,mutagenic call,"Test System: AMES SALMONELLA TYPHIMURIUM, Strain/Indicator: TA104, Metabolic Activation: NONE, Method: PREINCUBATION (EXPOSURE IN MEDIUM WITH KCL)",active; positive
same,mutagenic call,"Test System: AMES SALMONELLA TYPHIMURIUM, Strain/Indicator: TA104, Metabolic Activation: NONE, Method: PREINCUBATION (EXPOSURE IN MEDIUM WITHOUT KCL)",active; positive
same,mutagenic call,"Test System: CHINESE HAMSTER V-79, Strain/Indicator: V-79/6-THIOGUANINE, Metabolic Activation: NONE",active; positive
c1ccc2c(c1)cc1ccc3cccc4c5ccccc5c2c1c34,mutagenic call,"End Point: In vitro micronucleus, Test System: V79MZ Chinese hamster fibroblasts, Metabolic Activation: None",inactive; negative
same,mutagenic call,"End Point: In vitro micronucleus, Test System: V79MZ-h1A1 Chinese hamster fibroblasts (expressing human CYP1A1), Metabolic Activation: None",active; positive
same,mutagenic call,"End Point: In vitro micronucleus, Test System: V79MZ-h1B1 Chinese hamster fibroblasts (expressing human CYP1B1), Metabolic Activation: None",active; positive
same,mutagenic call,[1],active; positive
same,mutagenic call,[2],active; positive
same,mutagenic call,"Test System: CHINESE HAMSTER V-79, Strain/Indicator: V-79 (HPRT)/6-THIOGUANINE, Metabolic Activation: HUMAN MAMMARY CARCINOMA MCF-7 CELLS",active; positive
Clc1ccc(Cl)c(Cl)c1,mutagenic call,"Test System: AMES SALMONELLA TYPHIMURIUM, Strain/Indicator: TA98, Metabolic Activation: HAMSTER, LIVER, S-9, AROCLOR 1254, Method: PREINCUBATION",inactive; negative
same,mutagenic call,[3],inactive; negative
same,mutagenic call,[1],inactive; negative
same,mutagenic call,"Test System: AMES SALMONELLA TYPHIMURIUM, Strain/Indicator: TA100, Metabolic Activation: HAMSTER, LIVER, S-9, AROCLOR 1254, Method: PREINCUBATION",inactive; negative
same,mutagenic call,[4],inactive; negative
same,mutagenic call,[2],inactive; negative
same,mutagenic call,"Test System: AMES SALMONELLA TYPHIMURIUM, Strain/Indicator: TA1535, Metabolic Activation: HAMSTER, LIVER, S-9, AROCLOR 1254, Method: PREINCUBATION",inactive; negative
same,mutagenic call,[5],inactive; negative
same,mutagenic call,"Test System: AMES SALMONELLA TYPHIMURIUM, Strain/Indicator: TA1535, Metabolic Activation: RAT, LIVER, S-9, AROCLOR 1254, Method: PREINCUBATION",inactive; negative
same,mutagenic call,"Test System: AMES SALMONELLA TYPHIMURIUM, Strain/Indicator: TA1537, Metabolic Activation: HAMSTER, LIVER, S-9, AROCLOR 1254, Method: PREINCUBATION",inactive; negative
same,mutagenic call,"Test System: AMES SALMONELLA TYPHIMURIUM, Strain/Indicator: TA1537, Metabolic Activation: NONE, Method: PREINCUBATION",inactive; negative
same,mutagenic call,"Test System: AMES SALMONELLA TYPHIMURIUM, Strain/Indicator: TA1537, Metabolic Activation: RAT, LIVER, S-9, AROCLOR 1254, Method: PREINCUBATION",inactive; negative
NC(=O)c1ccccc1O,mutagenic call,"Test System: AMES SALMONELLA TYPHIMURIUM, Strain/Indicator: TA97, Metabolic Activation: HAMSTER, LIVER, S-9, AROCLOR 1254 (10 OR 30%), Method: PREINCUBATION",inactive; negative
same,mutagenic call,"Test System: AMES SALMONELLA TYPHIMURIUM, Strain/Indicator: TA97, Metabolic Activation: NONE, Method: PREINCUBATION",inactive; negative
same,mutagenic call,"Test System: AMES SALMONELLA TYPHIMURIUM, Strain/Indicator: TA97, Metabolic Activation: RAT, LIVER, S-9, AROCLOR 1254 (10 OR 30%), Method: PREINCUBATION",inactive; negative
same,mutagenic call,"Test System: AMES SALMONELLA TYPHIMURIUM, Strain/Indicator: TA98, Metabolic Activation: GUINEA PIG, LIVER, S-9, PCB, Method: PREINCUBATION",inactive; negative
same,mutagenic call,"Test System: AMES SALMONELLA TYPHIMURIUM, Strain/Indicator: TA98, Metabolic Activation: HAMSTER, LIVER, S-9, AROCLOR 1254 (10 OR 30%), Method: PREINCUBATION",inactive; negative
same,mutagenic call,"Test System: AMES SALMONELLA TYPHIMURIUM, Strain/Indicator: TA98, Metabolic Activation: HAMSTER, LIVER, S-9, PCB, Method: PREINCUBATION",inactive; negative
same,mutagenic call,"Test System: AMES SALMONELLA TYPHIMURIUM, Strain/Indicator: TA98, Metabolic Activation: MOUSE, LIVER, S-9, PCB, Method: PREINCUBATION",inactive; negative
same,mutagenic call,[3],inactive; negative
same,mutagenic call,"Test System: AMES SALMONELLA TYPHIMURIUM, Strain/Indicator: TA98, Metabolic Activation: RAT, LIVER, S-9, AROCLOR 1254 (10 OR 30%), Method: PREINCUBATION",inactive; negative
same,mutagenic call,"Test System: AMES SALMONELLA TYPHIMURIUM, Strain/Indicator: TA98, Metabolic Activation: RAT, LIVER, S-9, PCB, Method: PREINCUBATION",inactive; negative
same,mutagenic call,"Test System: AMES SALMONELLA TYPHIMURIUM, Strain/Indicator: TA100, Metabolic Activation: GUINEA PIG, LIVER, S-9, PCB, Method: PREINCUBATION",inactive; negative
same,mutagenic call,"Test System: AMES SALMONELLA TYPHIMURIUM, Strain/Indicator: TA100, Metabolic Activation: HAMSTER, LIVER, S-9, AROCLOR 1254 (10 OR 30%), Method: PREINCUBATION",inactive; negative
same,mutagenic call,"Test System: AMES SALMONELLA TYPHIMURIUM, Strain/Indicator: TA100, Metabolic Activation: HAMSTER, LIVER, S-9, PCB, Method: PREINCUBATION",inactive; negative
same,mutagenic call,"Test System: AMES SALMONELLA TYPHIMURIUM, Strain/Indicator: TA100, Metabolic Activation: MOUSE, LIVER, S-9, PCB, Method: PREINCUBATION",inactive; negative
same,mutagenic call,[4],inactive; negative
same,mutagenic call,"Test System: AMES SALMONELLA TYPHIMURIUM, Strain/Indicator: TA100, Metabolic Activation: RAT, LIVER, S-9, AROCLOR 1254 (10 OR 30%), Method: PREINCUBATION",inactive; negative
same,mutagenic call,"Test System: AMES SALMONELLA TYPHIMURIUM, Strain/Indicator: TA100, Metabolic Activation: RAT, LIVER, S-9, PCB, Method: PREINCUBATION",inactive; negative
same,mutagenic call,"Test System: AMES SALMONELLA TYPHIMURIUM, Strain/Indicator: TA1535, Metabolic Activation: HAMSTER, LIVER, S-9, AROCLOR 1254 (10 OR 30%), Method: PREINCUBATION",inactive; negative
same,mutagenic call,[5],inactive; negative
same,mutagenic call,"Test System: AMES SALMONELLA TYPHIMURIUM, Strain/Indicator: TA1535, Metabolic Activation: RAT, LIVER, S-9, AROCLOR 1254 (10 OR 30%), Method: PREINCUBATION",inactive; negative
c1ccc(Cn2ccnc2)cc1,mutagenic call,[3],inactive; negative
same,mutagenic call,"Test System: AMES SALMONELLA TYPHIMURIUM, Strain/Indicator: TA98, Metabolic Activation: RAT, LIVER, S-9, N-BENZYLIMIDAZOLE, Method: PREINCUBATION",inactive; negative
same,mutagenic call,"Test System: AMES SALMONELLA TYPHIMURIUM, Strain/Indicator: TA98, Metabolic Activation: RAT, LIVER, S-9, Method: PREINCUBATION",inactive; negative
same,mutagenic call,[4],inactive; negative
same,mutagenic call,"Test System: AMES SALMONELLA TYPHIMURIUM, Strain/Indicator: TA100, Metabolic Activation: RAT, LIVER, S-9, N-BENZYLIMIDAZOLE, Method: PREINCUBATION",active; positive
same,mutagenic call,"Test System: AMES SALMONELLA TYPHIMURIUM, Strain/Indicator: TA100, Metabolic Activation: RAT, LIVER, S-9, Method: PREINCUBATION",active; positive
CCC(C)Br (configuration not stated),mutagenic call,"Test System: AMES SALMONELLA TYPHIMURIUM, Strain/Indicator: TA100, Metabolic Activation: NONE, Method: DESICCATOR",active; positive
same,mutagenic call,"Test System: AMES SALMONELLA TYPHIMURIUM, Strain/Indicator: TA100, Metabolic Activation: RAT, LIVER, S-9, AROCLOR 1254, Method: DESICCATOR",active; positive
same,mutagenic call,"Test System: AMES SALMONELLA TYPHIMURIUM, Strain/Indicator: TA1535, Metabolic Activation: NONE, Method: DESICCATOR",active; positive
same,mutagenic call,"Test System: AMES SALMONELLA TYPHIMURIUM, Strain/Indicator: TA1535, Metabolic Activation: RAT, LIVER, S-9, AROCLOR 1254, Method: DESICCATOR",active; positive
